Read-outs that look alike come from different tables or passages of the source.
How the values were obtained:
MCF-7 cells = assay: MTT anti-proliferative assay, MCF-7; format: cell-based, human; conditions: read-out: MCF-7 IC50 ± SD
Description: (§1) All cell lines were purchased from Cell Bank of Shanghai Institute of Biochemistry and Cell Biology, Chinese Academy of Sciences (Shanghai, China). Human breast carcinoma cells (MCF-7 and MCF-7/DOX), breast epithelial cells (MCF-10A) and normal human liver cells (LO2) were maintained in RPMI-1640 medium. All cells were supplemented with 12% fetal bovine serum containing 50 μg/ml penicillin and 50 μg/ml streptomycin. Cells were grown to 80% confluency in a tissue culture flask at 37 °C in a humidified atmosphere containing 5% CO2, and then were trypsinized with 1 × Trypsin-Versene and split. The MCF-7/DOX cell line we used was established from its parental cell line MCF-7 cell by gradually increasing the concentration of DOX to which the cells were exposed in a stepwise manner over a period of 8 months. […] The cells were incubated in drug-free medium for at least 1 week before use.
(§2) Cells (MCF-7, MCF-7/DOX, MCF-10A, LO2) were seeded in 96-well plates at a density of 3,000–6,000 cells per well. The cells were incubated overnight (16 h) in a humidified 5% CO2 incubator at 37 °C. After media removal, different concentrations of test compounds were added in triplicate to the plates in 200 μL of fresh media and were incubated with the cells at 37 °C for 48 h. […] Cell viability was evaluated using 3-(4, 5-dimethylthiazolyl)-2,5-diphenyltetrazoliumbromide (MTT). The absorbance was read by an ELISA reader (SpectraMax Plus384, Molecular Devices, Sunnyvale, CA) at a test wavelength of 570 nm and a reference wavelength of 630 nm. Cell viability was calculated using the following formula: […]

MCF-7/DOX cells = assay: MTT anti-proliferative assay, MCF-7/DOX; format: cell-based, human; conditions: for IC50: MTT, 48 h, read-out: MCF-7/DOX IC50 ± SD
Description: as §1, §2

LO2 cells = assay: MTT anti-proliferative assay, LO2; format: cell-based; conditions: Homo sapiens, L02, 48 h, normal human liver cells, Table 2 prints no unit, μM
Description: as §1, §2

MCF-10A cells = assay: MTT anti-proliferative assay, MCF-10A; format: cell-based, human; conditions: Homo sapiens, MCF-10A, 48 h, normal breast epithelial cells, Table 2 prints no unit, μM
Description: as §1, §2

| Molecule | IC50 (MCF-7 cells; Homo sapiens, MCF7, 48 h) | IC50 (MCF-7/DOX cells; Homo sapiens, MCF7-DOX) | melting point | IC50 (MCF-7 cells; 48 h) | IC50 (MCF-7/DOX cells) | IC50 (LO2 cells) | IC50 (MCF-10A cells) | resistance to DOX compared with parental DOX-sensitive cells (MCF-7/DOX cells; MCF-7/DOX vs MCF-7) |
| --- | --- | --- | --- | --- | --- | --- | --- | --- |
| COc1ccc(/C=C/C(=O)N2CCN(C(=O)C3=Cc4cc(Br)ccc4S3(=O)=O)CC2)cc1OC [Compound 6a, (E)-1-(4-(5-bromo-1,1-dioxidobenzo[b]thiophene-2-carbonyl)piperazin-1-yl)-3-(3,4-dimethoxyphenyl)prop-2-en-1-one] | 710 ± 140 nM | 1820 ± 190 nM | 244 to 246 °C | – | – | – | – | – |
| COc1cc(/C=C/C(=O)N2CCN(C(=O)C3=Cc4cc(Br)ccc4S3(=O)=O)CC2)cc(OC)c1OC [Compound 6c, (E)-1-(4-(5-bromo-1,1-dioxidobenzo[b]thiophene-2-carbonyl)piperazin-1-yl)-3-(3,4,5-trimethoxyphenyl)prop-2-en-1-one] | 1230 ± 80 nM | 860 ± 130 nM | 94 to 96 °C | – | – | – | – | – |
| COc1cc(/C=C/C(=O)N2CCN(C(=O)C3=Cc4cc(Br)ccc4S3(=O)=O)CC2)cc(OC)c1O [Compound 6d, (E)-1-(4-(5-bromo-1,1-dioxidobenzo[b]thiophene-2-carbonyl)piperazin-1-yl)-3-(4-hydroxy-3,5-dimethoxyphenyl)prop-2-en-1-one] | 2250 ± 350 nM | 2270 ± 600 nM | 125 to 127 °C | – | – | – | – | – |
| O=C(/C=C/c1ccc(Cl)cc1)N1CCN(C(=O)C2=Cc3cc(Br)ccc3S2(=O)=O)CC1 [Compound 6h, (E)-1-(4-(5-bromo-1,1-dioxidobenzo[b]thiophene-2-carbonyl)piperazin-1-yl)-3-(4-chlorophenyl)prop-2-en-1-one] | 2020 ± 200 nM | 720 ± 130 nM | 225 to 227 °C | – | – | – | – | – |
| COc1ccc(/C=C/C(=O)N2CCN(C(=O)C3=Cc4ccc(Br)cc4S3(=O)=O)CC2)cc1OC [Compound 6l, (E)-1-(4-(6-bromo-1,1-dioxidobenzo[b]thiophene-2-carbonyl)piperazin-1-yl)-3-(3,4-dimethoxyphenyl)prop-2-en-1-one] | 1250 ± 140 nM | 1770 ± 120 nM | 222 to 224 °C | – | – | – | – | – |
| COc1cc(/C=C/C(=O)N2CCN(C(=O)C3=Cc4ccc(Br)cc4S3(=O)=O)CC2)cc(OC)c1OC [Compound 6n, (E)-1-(4-(6-bromo-1,1-dioxidobenzo[b]thiophene-2-carbonyl)piperazin-1-yl)-3-(3,4,5-trimethoxyphenyl)prop-2-en-1-one] | 2620 ± 130 nM | 2880 ± 570 nM | 81 to 85 °C | – | – | – | – | – |
| COc1cc(/C=C/C(=O)N2CCN(C(=O)C3=Cc4ccc(Br)cc4S3(=O)=O)CC2)cc(OC)c1O [Compound 6o, (E)-1-(4-(6-bromo-1,1-dioxidobenzo[b]thiophene-2-carbonyl)piperazin-1-yl)-3-(4-hydroxy-3,5-dimethoxyphenyl)prop-2-en-1-one] | 2900 ± 360 nM | 9490 ± 2800 nM | 112 to 114 °C | – | – | – | – | – |
| O=C(/C=C/c1ccccc1O)N1CCN(C(=O)C2=Cc3ccc(Br)cc3S2(=O)=O)CC1 [Compound 6p, (E)-1-(4-(6-bromo-1,1-dioxidobenzo[b]thiophene-2-carbonyl)piperazin-1-yl)-3-(2-hydroxy)prop-2-en-1-one] | 4000 ± 910 nM | 3780 ± 140 nM | > 250 °C | – | – | – | – | – |
| O=C(/C=C/c1ccccn1)N1CCN(C(=O)C2=Cc3ccc(Br)cc3S2(=O)=O)CC1 [Compound 6q, (E)-1-(4-(6-bromo-1,1-dioxidobenzo[b]thiophene-2-carbonyl)piperazin-1-yl)-3-(pyridin-2-yl)prop-2-en-1-one] | 1480 ± 190 nM | 4420 ± 170 nM | 97 to 99 °C | – | – | – | – | – |
| O=C(/C=C/c1ccc(Br)cc1)N1CCN(C(=O)C2=Cc3ccc(Br)cc3S2(=O)=O)CC1 [Compound 6r, (E)-1-(4-(6-bromo-1,1-dioxidobenzo[b]thiophene-2-carbonyl)piperazin-1-yl)-3-(4-bromophenyl)prop-2-en-1-one] | 1600 ± 130 nM | 2610 ± 820 nM | 215 to 217 °C | – | – | – | – | – |
| O=C(/C=C/c1ccc(Cl)cc1)N1CCN(C(=O)C2=Cc3ccc(Br)cc3S2(=O)=O)CC1 [Compound 6s, (E)-1-(4-(6-bromo-1,1-dioxidobenzo[b]thiophene-2-carbonyl)piperazin-1-yl)-3-(4-chlorophenyl)prop-2-en-1-one] | 1600 ± 90 nM | 2230 ± 160 nM | 225 to 227 °C | – | – | – | – | – |
| (E)-1-(4-(5-bromo-1,1-dioxidobenzo[b]thiophene-2-carbonyl)piperazin-1-yl)-3-(4-fluorophenyl)prop-2-en-1-one [Compound 6v] | – | – | – | 1450 ± 170 nM | 2140 ± 270 nM | – | – | – |

More lines, main results first:

| IC50 (MCF-7 cells; Homo sapiens, MCF7, 48 h) | IC50 (MCF-7/DOX cells; Homo sapiens, MCF7-DOX) | melting point | IC50 (MCF-7 cells; 48 h) | IC50 (MCF-7/DOX cells) | Molecule | IC50 (LO2 cells) | IC50 (MCF-10A cells) | resistance to DOX compared with parental DOX-sensitive cells (MCF-7/DOX cells; MCF-7/DOX vs MCF-7) |
| --- | --- | --- | --- | --- | --- | --- | --- | --- |
| 1180 ± 80 nM | 1080 ± 140 nM | > 250 °C | – | – | O=C(/C=C/c1ccc([N+](=O)[O-])cc1)N1CCN(C(=O)C2=Cc3cc(Br)ccc3S2(=O)=O)CC1 [Compound 6e, (E)-1-(4-(5-bromo-1,1-dioxidobenzo[b]thiophene-2-carbonyl)piperazin-1-yl)-3-(4-nitrophenyl)prop-2-en-1-one] | – | – | – |
| 1080 ± 60 nM | 1890 ± 270 nM | 241 to 242 °C | – | – | O=C(/C=C/c1ccccn1)N1CCN(C(=O)C2=Cc3cc(Br)ccc3S2(=O)=O)CC1 [Compound 6f, (E)-1-(4-(5-bromo-1,1-dioxidobenzo[b]thiophene-2-carbonyl)piperazin-1-yl)-3-(pyridin-2-yl)prop-2-en-1-one] | – | – | – |
| 2080 ± 60 nM | 1180 ± 70 nM | > 250 °C | – | – | O=C(/C=C/c1ccc(Br)cc1)N1CCN(C(=O)C2=Cc3cc(Br)ccc3S2(=O)=O)CC1 [Compound 6g, (E)-1-(4-(5-bromo-1,1-dioxidobenzo[b]thiophene-2-carbonyl)piperazin-1-yl)-3-(4-bromophenyl)prop-2-en-1-one] | – | – | – |
| 670 ± 140 nM | 870 ± 120 nM | 245 to 247 °C | – | – | O=C(/C=C/c1ccc(C(F)(F)F)cc1)N1CCN(C(=O)C2=Cc3cc(Br)ccc3S2(=O)=O)CC1 [Compound 6i, (E)-1-(4-(5-bromo-1,1-dioxidobenzo[b]thiophene-2-carbonyl)piperazin-1-yl)-3-(4-(trifluoromethyl)phenyl)prop-2-en-1-one] | – | – | – |
| 1500 ± 180 nM | 2440 ± 570 nM | > 250 °C | – | – | O=C(/C=C/c1ccc(F)cc1)N1CCN(C(=O)C2=Cc3cc(Br)ccc3S2(=O)=O)CC1 [Compound 6k, (E)-1-(4-(5-bromo-1,1-dioxidobenzo[b]thiophene-2-carbonyl)piperazin-1-yl)-3-(4-fluorophenyl)prop-2-en-1-one] | – | – | – |
| 990 ± 70 nM | 380 ± 10 nM | 220 to 222 °C | – | – | COc1ccc(/C=C/C(=O)N2CCN(C(=O)C3=Cc4ccc(Br)cc4S3(=O)=O)CC2)cc1 [Compound 6m, (E)-1-(4-(6-bromo-1,1-dioxidobenzo[b]thiophene-2-carbonyl)piperazin-1-yl)-3-(4-methoxyphenyl)prop-2-en-1-one] | – | – | – |
| 980 ± 80 nM | 64700 ± 3800 nM | – | – | – | COc1cccc2c1C(=O)c1c(O)c3c(c(O)c1C2=O)C[C@@](O)(C(=O)CO)C[C@@H]3O[C@H]1C[C@H](N)[C@H](O)[C@H](C)O1 [DOX, doxorubicin, reference compound] | 0.82 ± 0.12 µM | 0.98 ± 0.17 µM | 66.02 fold |
| – | – | – | 860 ± 90 nM | 1000 ± 760 nM | (E)-1-(4-(5-bromo-1,1-dioxidobenzo[b]thiophene-2-carbonyl)piperazin-1-yl)-3-(4-hydroxy-3-methoxyphenyl)prop-2-en-1-one [Compound 6j] | – | – | – |
| – | – | – | 3030 ± 220 nM | 2020 ± 340 nM | (E)-1-(4-(6-bromo-1,1-dioxidobenzo[b]thiophene-2-carbonyl)piperazin-1-yl)-3-(3-hydroxy-4-methoxyphenyl)prop-2-en-1-one [Compound 6t] | – | – | – |
| – | – | – | 1440 ± 110 nM | 550 ± 10 nM | (E)-1-(4-(6-bromo-1,1-dioxidobenzo[b]thiophene-2-carbonyl)piperazin-1-yl)-3-(4-hydroxy-3-methoxyphenyl)prop-2-en-1-one [Compound 6u] | – | – | – |

From publication PMC5387716, “Discovery of monocarbonyl curcumin-BTP hybrids as STAT3 inhibitors for drug-sensitive and drug-resistant breast cancer therapy” (Scientific Reports, 2017)
